From patent US20080020998A1, “Sustained release compositions for the therapeutic management of pain, inflammation and inflammation-associated disorders and prophylactic/ therapeutic methods thereof” (priority 2006, published 2008)

How the values were obtained:
[1] = tested on: patients with osteoarthritis of the knee; assay: Double blind, randomized study in osteoarthritis of the knee: VAS assessment of pain, stiffness and swelling; type: in vivo, human; settings: twice-daily for 90 days, VAS scored 0 to 10, baseline vs end of 90 days
Text: The institutional ethics committee approved the study protocol. Patients were recruited from the orthopaedic outpatient clinic of a tertiary care hospital. Consecutive outpatients of either sex, aged between 40-65 years in ARA functional class I, II or III and radiologically diagnosed to have osteoarthritis of the knee were identified. Clinically pain or discomfort should have been experienced in the affected knee on most days for the previous 3 months. Of these, patients already undergone knee arthroplasty, taken glucosamine in the previous 3 months or any intraarticular injection within previous month, having renal and/or hepatic disease, diabetes mellitus or a disabling co-morbidity were excluded.
After giving their written informed consent, patients were assessed at baseline for demographic and clinical characteristics. They were then randomized to receive either glucosamine sulphate or a combination of glucosamine sulphate, Boswellia serrata and curcuminoids twice-daily in a double blind manner for a total period of 90 days. Both the medications were identical in appearance and taste. Treatment of associated disease was allowed at the discretion of the physician. Patients were assessed at baseline and at the end of 90 days. […] VAS was scored from 0 to 10, where 0 indicates no pain/swelling/stiffness and 10 is the worst pain/swelling/stiffness imaginable.
(§1) The Western Ontario McMaster Universities Osteoarthritis Index (WOMAC) (8) was used to evaluate pain, stiffness and physical function of the knee. […] Adherence to trial medication was recorded. Adverse events, patient withdrawals and concomitant illnesses were recorded in accordance with good clinical practice guidelines.
The primary outcome measure was the change in VAS and WOMAC assessment of pain and stiffness in the affected knee. Response to treatment was analysed on an intention to treat basis, and the continuous variables were tested for significance by the standard error of difference in means. Categorical data were expressed as percentages with their 95% confidence intervals (CI). […]

[2] = tested on: patients with osteoarthritis of the knee; assay: Double blind, randomized study in osteoarthritis of the knee: adherence and adverse events; type: in vivo, human; settings: 90-day trial, 50 patients randomized to two groups
Experimental: After giving their written informed consent, patients were assessed at baseline for demographic and clinical characteristics. They were then randomized to receive either glucosamine sulphate or a combination of glucosamine sulphate, Boswellia serrata and curcuminoids twice-daily in a double blind manner for a total period of 90 days. Both the medications were identical in appearance and taste. Treatment of associated disease was allowed at the discretion of the physician. Patients were assessed at baseline and at the end of 90 days. Four separate 10 cm visual analogue scales (VAS) were used to measure pain in affected knee at rest, on movement and the patients overall assessment of swelling and morning stiffness. VAS was scored from 0 to 10, where 0 indicates no pain/swelling/stiffness and 10 is the worst pain/swelling/stiffness imaginable.
as §1, with “knee. The pain and stiffness subscales of the WOMAC have scores of 0-20 and 0-8 respectively, with 0 representing no pain or stiffness.” for “knee.”

In the case of `N[C@H]1C(O)O[C@H](CO)[C@@H](O)[C@@H]1O.O=S(=O)(O)O` (some centres unmarked) [glucosamine sulphate], the “Mean (95% CI) decrease in VAS score for morning stiffness” value [1] is reported as 0.13, the “Mean (95% CI) decrease in VAS score for pain on use” value [1] is reported as 0.27 and the “Mean (95% CI) decrease in VAS score for swelling” value [1] is reported as 0.45. The “Patients who reported headache” value [2] was 4 (16.0%) patients (%) and the “Patients who reported increase in pain” value [2] was 3 (12.0%) patients (%).
